From US9663508B2, “Biaryl acyl-sulfonamide compounds as sodium channel inhibitors” (AMGEN INC., priority 2013, dated 2017)

molecular target: human Nav1.7 (Homo sapiens (Human), UniProt Q15858); assay: Nav 1.7 in vitro PatchXpress (PX) assay; assay type: cell-based
Sequence (Q15858 whole entry): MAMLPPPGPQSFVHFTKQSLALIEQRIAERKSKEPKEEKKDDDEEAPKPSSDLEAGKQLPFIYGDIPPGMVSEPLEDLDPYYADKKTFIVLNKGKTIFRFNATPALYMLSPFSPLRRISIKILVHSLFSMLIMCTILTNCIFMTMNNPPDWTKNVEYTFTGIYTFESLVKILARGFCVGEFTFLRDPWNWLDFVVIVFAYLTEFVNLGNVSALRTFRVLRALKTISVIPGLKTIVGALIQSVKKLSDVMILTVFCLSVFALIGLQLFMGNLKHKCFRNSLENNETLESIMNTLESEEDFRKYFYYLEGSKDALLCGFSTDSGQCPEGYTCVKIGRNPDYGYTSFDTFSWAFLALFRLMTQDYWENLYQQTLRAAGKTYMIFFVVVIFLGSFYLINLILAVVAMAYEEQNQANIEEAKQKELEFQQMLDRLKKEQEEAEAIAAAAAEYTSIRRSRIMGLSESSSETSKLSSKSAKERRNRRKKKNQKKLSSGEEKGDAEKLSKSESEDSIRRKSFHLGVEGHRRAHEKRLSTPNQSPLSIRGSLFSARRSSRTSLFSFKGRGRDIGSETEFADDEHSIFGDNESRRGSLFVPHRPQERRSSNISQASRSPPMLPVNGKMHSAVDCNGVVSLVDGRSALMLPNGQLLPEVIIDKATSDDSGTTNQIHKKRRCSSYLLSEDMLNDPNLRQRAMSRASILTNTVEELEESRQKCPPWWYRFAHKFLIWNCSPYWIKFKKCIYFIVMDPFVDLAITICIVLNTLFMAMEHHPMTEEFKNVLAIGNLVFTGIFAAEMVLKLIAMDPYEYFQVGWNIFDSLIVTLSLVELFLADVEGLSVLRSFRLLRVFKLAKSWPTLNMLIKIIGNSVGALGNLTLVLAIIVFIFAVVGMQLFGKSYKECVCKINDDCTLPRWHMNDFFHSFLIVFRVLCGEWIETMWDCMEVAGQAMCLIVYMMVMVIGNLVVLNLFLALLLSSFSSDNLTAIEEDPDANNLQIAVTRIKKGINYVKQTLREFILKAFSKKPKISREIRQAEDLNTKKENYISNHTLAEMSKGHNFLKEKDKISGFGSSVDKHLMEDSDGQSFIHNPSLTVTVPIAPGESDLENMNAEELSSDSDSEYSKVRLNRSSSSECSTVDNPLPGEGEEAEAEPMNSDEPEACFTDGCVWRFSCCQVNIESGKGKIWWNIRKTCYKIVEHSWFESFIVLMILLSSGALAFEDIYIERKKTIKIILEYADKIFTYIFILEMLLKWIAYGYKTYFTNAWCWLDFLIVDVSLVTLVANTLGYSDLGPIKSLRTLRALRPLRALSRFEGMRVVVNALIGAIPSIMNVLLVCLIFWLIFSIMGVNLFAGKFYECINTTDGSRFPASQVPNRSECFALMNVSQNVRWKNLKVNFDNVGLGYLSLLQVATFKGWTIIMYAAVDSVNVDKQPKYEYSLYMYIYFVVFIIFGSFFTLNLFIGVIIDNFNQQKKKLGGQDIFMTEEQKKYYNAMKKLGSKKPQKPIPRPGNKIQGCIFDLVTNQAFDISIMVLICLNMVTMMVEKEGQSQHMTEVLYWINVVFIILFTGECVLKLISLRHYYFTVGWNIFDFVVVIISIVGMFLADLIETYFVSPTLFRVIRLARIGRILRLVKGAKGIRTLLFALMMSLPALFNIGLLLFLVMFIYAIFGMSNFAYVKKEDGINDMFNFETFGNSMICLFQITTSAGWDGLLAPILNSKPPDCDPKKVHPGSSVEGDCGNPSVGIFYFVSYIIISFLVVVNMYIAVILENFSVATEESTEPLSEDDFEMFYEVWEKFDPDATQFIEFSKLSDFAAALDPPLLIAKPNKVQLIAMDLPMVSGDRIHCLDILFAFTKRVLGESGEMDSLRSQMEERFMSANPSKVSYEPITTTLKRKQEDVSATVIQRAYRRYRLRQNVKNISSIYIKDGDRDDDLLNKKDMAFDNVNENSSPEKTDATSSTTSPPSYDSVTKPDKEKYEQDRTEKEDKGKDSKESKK

Row | Compound | IC50 [nM]
1 | Cc1cccc(Cl)c1Oc1ncc(-c2ccc(C(=O)NS(C)(=O)=O)cc2OC(F)F)cc1Cl [Example 468, 4-(5-chloro-6-(2-chloro-6-methylphenoxy)-3-pyridinyl)-3-(difluoromethoxy)-N-(methylsulfonyl)benzamide] | 53.5
2 | COc1cc(C(=O)NS(C)(=O)=O)ccc1-c1cnc(OCCc2ccccc2)c(C#N)c1 [Example 539, 4-(5-cyano-6-(2-phenylethoxy)-3-pyridinyl)-3-methoxy-N-(methylsulfonyl)benzamide] | 94.2
3 | COc1cc(C(=O)NS(C)(=O)=O)ccc1-c1cnc(Oc2ccc(C)c(Cl)c2)c(C#N)c1 [Example 549, 4-(6-(3-chloro-4-methylphenoxy)-5-cyano-3-pyridinyl)-3-methoxy-N-(methylsulfonyl)benzamide] | 50.5
4 | CS(=O)(=O)NC(=O)c1cc(F)c(-c2cnc(Oc3c(Cl)cc(Cl)cc3Cl)c(Cl)c2)cc1F [Example 568, 4-(5-chloro-6-(2,4,6-trichlorophenoxy)-3-pyridinyl)-2,5-difluoro-N-(methylsulfonyl)benzamide] | 48.5
5 | Cc1ccc(Oc2ncc(-c3cc(F)c(C(=O)NS(C)(=O)=O)cc3F)cc2Cl)c(F)c1F [Example 569, 4-(5-chloro-6-(2,3-difluoro-4-methylphenoxy)-3-pyridinyl)-2,5-difluoro-N-(methylsulfonyl)benzamide] | 60
6 | COc1cc(C(=O)NS(C)(=O)=O)ccc1-c1cnc(Oc2c(C)cc(Cl)cc2Cl)c(Cl)c1 [Example 578, 4-(5-Chloro-6-(2,4-Dichloro-6-Methylphenoxy)-Pyridin-3-yl)-3-Methoxy-N-(Methylsulfonyl)Benzamide] | 29.6
7 | COc1cc(C(=O)NS(C)(=O)=O)ccc1-c1cnc(Oc2cccc(Cl)c2C)c(Cl)c1 [Example 579, 4-(5-chloro-6-(3-chloro-2-methylphenoxy)-3-pyridinyl)-3-methoxy-N-(methylsulfonyl)benzamide] | 48.6

Further lines, results first:

Row | IC50 [nM] | Compound
8 | 61.2 | CS(=O)(=O)NC(=O)c1cc(F)c(-c2cnc(Oc3ccc(Cl)c(Cl)c3)c(Cl)c2)cc1F [Example 570, 4-(5-chloro-6-(3,4-dichlorophenoxy)-3-pyridinyl)-2,5-difluoro-N-(methylsulfonyl)benzamide]
9 | 99.2 | Cc1ccc(Cl)cc1Oc1ncc(-c2cc(F)c(C(=O)NS(C)(=O)=O)cc2F)cc1Cl [Example 571, 4-(5-chloro-6-(5-chloro-2-methylphenoxy)-3-pyridinyl)-2,5-difluoro-N-(methylsulfonyl)benzamide]
10 | 57.6 | CS(=O)(=O)NC(=O)c1cc(F)c(-c2cnc(Oc3c(Cl)cc(F)cc3Cl)c(Cl)c2)cc1F [Example 572, 4-(5-chloro-6-(2,6-dichloro-4-fluorophenoxy)-3-pyridinyl)-2,5-difluoro-N-(methylsulfonyl)benzamide]
11 | 88.8 | C[C@@H](Oc1ncc(-c2cc(F)c(C(=O)NS(C)(=O)=O)cc2F)cc1Cl)c1ccc(F)cc1F [Example 574, 4-(5-chloro-6-((1R)-1-(2,4-difluorophenyl)ethoxy)-3-pyridinyl)-2,5-difluoro-N-(methylsulfonyl)benzamide]
12 | 66.1 | COc1cc(C(=O)NS(C)(=O)=O)ccc1-c1cnc(Oc2ccc3c(c2)CCC3)c(Cl)c1 [Example 580, 4-(5-chloro-6-(2,3-dihydro-1H-inden-5-yloxy)-3-pyridinyl)-3-methoxy-N-(methylsulfonyl)benzamide]
13 | 84.6 | COc1cc(C(=O)NS(C)(=O)=O)ccc1-c1cnc(Oc2c(Cl)cccc2Cl)c(Cl)c1 [Example 581, 4-(5-chloro-6-(2,6-dichlorophenoxy)-3-pyridinyl)-3-methoxy-N-(methylsulfonyl)benzamide]
14 | 61.4 | COc1cc(C(=O)NS(C)(=O)=O)ccc1-c1cnc(Oc2cc(Cl)ccc2Cl)c(Cl)c1 [Example 582, 4-(5-chloro-6-(2,5-dichlorophenoxy)-3-pyridinyl)-3-methoxy-N-(methylsulfonyl)benzamide]
